Data published in ChEMBL document CHEMBL1141658, “4-thiazolidinone--a biologically active scaffold” (Eur J Med Chem, 2008).
In brackets after ≈: the same amount, converted by molar mass.

What was measured:
[1] = Selectivity index, ratio of inhibition of human MT4 cells to EC50 for HIV1 3B; assay type: toxicity, cell-based; conditions: read-out: Selectivity Index
[2] = system: Human immunodeficiency virus 1; experiment: Antiviral activity against HIV1 3B in human MT4 cells; assay type: functional, organism-based; conditions: Human immunodeficiency virus 1, 3B
Rattus norvegicus = experiment: Antiinflammatory activity against carrageenan-induced edema in po dosed Albino rat; assay type: functional
Candida albicans = experiment: Antifungal activity against Candida albicans by serial double dilution method; assay type: functional
Cryptococcus neoformans = experiment: Antifungal activity against Cryptococcus neoformans by serial double dilution method; assay type: functional
Alternaria alternata = experiment: Inhibition of Alternaria tenuis spore germination; assay type: functional
Mus musculus = experiment: Potentiation of pentobarbital-induced hypnosis in mouse assessed as sleeping time at 100 mg/kg relative to control; assay type: functional
[3] = biological target: T1, Follicle-stimulating hormone receptor (Homo sapiens, UniProt P23945); experiment: Agonist activity at human recombinant FSH receptor; assay type: functional
T1 sequence (P23945 whole entry): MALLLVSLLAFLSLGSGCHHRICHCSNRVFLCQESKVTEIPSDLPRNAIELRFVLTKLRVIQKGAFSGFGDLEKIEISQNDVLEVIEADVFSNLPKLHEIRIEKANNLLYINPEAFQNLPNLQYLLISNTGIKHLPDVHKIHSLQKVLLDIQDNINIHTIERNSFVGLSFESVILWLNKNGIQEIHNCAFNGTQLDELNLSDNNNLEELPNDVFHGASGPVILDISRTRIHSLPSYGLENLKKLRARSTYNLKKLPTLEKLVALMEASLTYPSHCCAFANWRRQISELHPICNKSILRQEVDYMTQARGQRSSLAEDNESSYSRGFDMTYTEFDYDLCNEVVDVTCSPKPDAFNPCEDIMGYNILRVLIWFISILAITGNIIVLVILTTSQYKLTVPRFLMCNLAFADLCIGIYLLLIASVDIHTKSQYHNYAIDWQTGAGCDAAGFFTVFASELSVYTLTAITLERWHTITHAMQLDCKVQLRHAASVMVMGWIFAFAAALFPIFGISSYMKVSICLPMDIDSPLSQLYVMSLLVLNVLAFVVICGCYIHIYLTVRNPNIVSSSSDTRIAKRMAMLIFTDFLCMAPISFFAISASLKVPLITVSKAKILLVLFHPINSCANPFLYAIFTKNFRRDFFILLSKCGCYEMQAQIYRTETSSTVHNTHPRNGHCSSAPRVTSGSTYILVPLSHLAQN

[4] = biological target: T2, Prostaglandin G/H synthase 2 (Mus musculus) (UniProt Q05769); experiment: Inhibition of COX2 in mouse J774 cells at 1 uM; assay type: cell-based
T2 sequence (whole entry): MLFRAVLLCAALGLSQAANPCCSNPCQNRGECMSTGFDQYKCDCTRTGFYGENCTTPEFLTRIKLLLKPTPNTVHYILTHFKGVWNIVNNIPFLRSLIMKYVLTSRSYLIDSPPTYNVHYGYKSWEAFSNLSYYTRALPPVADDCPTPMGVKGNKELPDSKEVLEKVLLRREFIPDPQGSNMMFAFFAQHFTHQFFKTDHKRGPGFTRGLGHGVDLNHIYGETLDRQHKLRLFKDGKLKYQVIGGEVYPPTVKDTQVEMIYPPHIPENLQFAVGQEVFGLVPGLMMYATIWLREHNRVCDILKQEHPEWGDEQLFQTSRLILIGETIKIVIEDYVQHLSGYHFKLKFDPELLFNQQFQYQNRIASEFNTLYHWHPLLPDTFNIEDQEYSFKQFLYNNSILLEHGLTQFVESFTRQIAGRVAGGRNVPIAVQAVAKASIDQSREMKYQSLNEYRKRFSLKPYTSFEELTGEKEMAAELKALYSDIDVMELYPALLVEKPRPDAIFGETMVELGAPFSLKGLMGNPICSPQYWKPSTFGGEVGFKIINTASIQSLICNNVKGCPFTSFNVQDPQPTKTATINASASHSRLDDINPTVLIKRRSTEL

[5] = biological target: T2, Prostaglandin G/H synthase 2 (Mus musculus); experiment: Inhibition of COX2 in mouse J774 cells at 10 uM; assay type: cell-based

Cc1cccc(N2C(=O)CSC2c2c(Cl)cccc2Cl)n1 (stereo not given)
selectivity ratio [1]: 6470

O=C1CSC(c2c(Cl)cccc2Cl)N1Cc1ccco1 (stereo not given)
EC50 [2]: 204 nM

CC1SC(c2ccccc2F)N(c2ccc(Br)cc2C(=O)O)C1=O (stereo not given)
ED50 (Rattus norvegicus): 100 mg/kg

CCCCCCCCCCCCN1C(=O)CSC12CCC(C(=O)C(N)Cc1ccccc1)CC2 (stereo not given)
MIC (Candida albicans): 50 µg/mL (≈ 103 µM)
MIC (Cryptococcus neoformans): 50 µg/mL (≈ 103 µM)

CCN1C(=O)C(C)S/C1=N\c1nc2cc(Cl)ccc2s1 (stereo not given)
inhibition (INH) (Alternaria alternata): 100%

O=C1CS/C(=N\c2ccccc2)N1c1ncccn1
Time (Mus musculus): 98.6 min
inhibition (INH) (Alternaria alternata): 100%

CCCCC1C(=O)N(c2ccccc2)N(c2ccccc2)C1=O [PHENYLBUTAZONE]
ED50 (Rattus norvegicus): 94.4 mg/kg

O=C1CS/C(=N\c2ccccc2)N1CCCN1CCOCC1
Time (Mus musculus): 98.6 min
inhibition (INH) (Alternaria alternata): 100%

COc1ccc(C2SC(CC(=O)NCCC3=CCc4ccccc43)C(=O)N2c2ccc(C(N)=O)c(Cl)c2)cc1 (stereo not given)
EC50 [3]: 5000 nM

CCCN1C(=O)/C(=C2\C=CC(OC)=CC2)S/C1=N\c1ccccc1
inhibition [4]: 35%
inhibition [5]: 55%

CCN1C(=O)C(C)S/C1=N\c1nc2c(Cl)cccc2s1 (stereo not given)
inhibition (INH) (Alternaria alternata): 100%
